Results reported in ChEMBL document CHEMBL1133183, “Quantized surface complementarity diversity (QSCD): a model based on small molecule-target complementarity” (J Med Chem, 2000).

Assays:
[1] = Inhibitory activity against DNA topoisomerase I
Endothelin-1 receptor = target: T1, Endothelin-1 receptor (Homo sapiens, UniProt P25101); assay: Binding affinity to Endothelin A receptor
T1 sequence (P25101 whole entry): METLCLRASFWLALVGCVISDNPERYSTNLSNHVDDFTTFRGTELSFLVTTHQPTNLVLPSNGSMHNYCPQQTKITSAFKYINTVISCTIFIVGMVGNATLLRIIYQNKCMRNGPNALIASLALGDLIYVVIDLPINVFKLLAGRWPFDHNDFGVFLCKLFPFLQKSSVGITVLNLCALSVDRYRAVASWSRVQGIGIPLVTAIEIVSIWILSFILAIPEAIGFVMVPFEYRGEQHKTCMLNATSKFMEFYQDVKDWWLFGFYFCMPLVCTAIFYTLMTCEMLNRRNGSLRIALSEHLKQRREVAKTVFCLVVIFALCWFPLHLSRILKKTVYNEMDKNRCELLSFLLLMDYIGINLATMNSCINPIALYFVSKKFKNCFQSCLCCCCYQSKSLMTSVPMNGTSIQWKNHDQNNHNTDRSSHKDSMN

[2] = target: T2, Type-2 angiotensin II receptor (Rattus norvegicus, UniProt P35351); assay: Binding affinity to Angiotensin II receptor, type 2
T2 sequence (P35351 whole entry): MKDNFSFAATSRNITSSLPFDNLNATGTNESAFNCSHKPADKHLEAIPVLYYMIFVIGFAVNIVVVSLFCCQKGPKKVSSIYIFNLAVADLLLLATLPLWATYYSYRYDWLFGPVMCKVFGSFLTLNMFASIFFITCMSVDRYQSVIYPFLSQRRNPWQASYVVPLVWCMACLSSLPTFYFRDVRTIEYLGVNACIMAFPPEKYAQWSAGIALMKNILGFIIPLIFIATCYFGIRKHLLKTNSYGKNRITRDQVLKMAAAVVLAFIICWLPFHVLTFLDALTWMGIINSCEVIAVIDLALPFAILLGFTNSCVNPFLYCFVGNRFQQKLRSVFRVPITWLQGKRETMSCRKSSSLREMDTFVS

[3] = target: T2, Type-2 angiotensin II receptor; assay: Inhibitory activity against Angiotensin II receptor, type 2 binding
[4] = target: T3, Type-1 angiotensin II receptor (Oryctolagus cuniculus, UniProt P34976); assay: Binding affinity to Angiotensin II receptor, type 1
T3 sequence (P34976 whole entry): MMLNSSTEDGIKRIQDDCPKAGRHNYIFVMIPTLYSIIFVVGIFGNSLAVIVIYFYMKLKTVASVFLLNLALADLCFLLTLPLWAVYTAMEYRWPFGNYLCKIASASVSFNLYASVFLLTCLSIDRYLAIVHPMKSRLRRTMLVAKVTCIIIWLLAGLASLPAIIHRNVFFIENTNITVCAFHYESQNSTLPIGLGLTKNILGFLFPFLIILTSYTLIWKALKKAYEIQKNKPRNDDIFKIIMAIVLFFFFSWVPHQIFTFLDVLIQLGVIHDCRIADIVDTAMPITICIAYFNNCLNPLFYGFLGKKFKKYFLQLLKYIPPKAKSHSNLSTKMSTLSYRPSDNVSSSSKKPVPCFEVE

Prolyl endopeptidase = Prolyl endopeptidase (Sus scrofa, UniProt P23687); assay: Inhibition of Prolyl endopeptidase activity; assay type: functional
Chain of Prolyl endopeptidase (P23687 whole entry): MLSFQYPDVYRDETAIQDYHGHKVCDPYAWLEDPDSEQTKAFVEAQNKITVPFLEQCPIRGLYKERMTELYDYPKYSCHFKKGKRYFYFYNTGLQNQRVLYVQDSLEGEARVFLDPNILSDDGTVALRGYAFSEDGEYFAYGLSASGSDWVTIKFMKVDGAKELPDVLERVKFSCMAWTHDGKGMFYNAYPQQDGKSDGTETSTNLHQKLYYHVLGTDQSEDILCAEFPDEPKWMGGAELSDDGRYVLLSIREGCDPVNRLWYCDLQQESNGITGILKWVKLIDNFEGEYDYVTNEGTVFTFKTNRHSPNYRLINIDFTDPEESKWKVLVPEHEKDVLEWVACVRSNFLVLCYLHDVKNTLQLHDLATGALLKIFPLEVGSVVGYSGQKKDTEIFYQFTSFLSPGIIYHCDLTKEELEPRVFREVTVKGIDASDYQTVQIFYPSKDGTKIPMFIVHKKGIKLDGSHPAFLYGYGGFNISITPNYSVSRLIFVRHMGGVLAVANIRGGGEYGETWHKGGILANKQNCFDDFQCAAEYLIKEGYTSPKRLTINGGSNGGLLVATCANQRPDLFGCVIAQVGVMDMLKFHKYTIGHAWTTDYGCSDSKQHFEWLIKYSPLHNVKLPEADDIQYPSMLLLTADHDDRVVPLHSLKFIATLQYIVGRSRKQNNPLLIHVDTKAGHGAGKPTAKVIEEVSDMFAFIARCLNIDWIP

Adenosine receptor A2a = Adenosine receptor A2a (Rattus norvegicus, UniProt P30543); assay: Binding affinity to Adenosine A2A receptor
Chain of Adenosine receptor A2a (P30543 whole entry): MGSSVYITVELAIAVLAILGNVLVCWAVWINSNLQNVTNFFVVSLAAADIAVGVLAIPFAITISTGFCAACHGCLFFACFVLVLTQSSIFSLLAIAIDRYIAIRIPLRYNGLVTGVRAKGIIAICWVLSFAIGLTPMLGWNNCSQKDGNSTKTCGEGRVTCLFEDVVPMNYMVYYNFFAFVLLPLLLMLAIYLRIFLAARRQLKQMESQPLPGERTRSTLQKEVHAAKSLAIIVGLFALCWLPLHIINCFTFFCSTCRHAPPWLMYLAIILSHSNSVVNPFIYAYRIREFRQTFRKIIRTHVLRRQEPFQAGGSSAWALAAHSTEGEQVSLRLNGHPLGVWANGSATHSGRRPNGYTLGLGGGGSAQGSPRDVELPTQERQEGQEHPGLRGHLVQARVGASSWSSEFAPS

[5] = target: Leukotriene B4 receptor 1 (Homo sapiens, UniProt Q15722); assay: Binding affinity to leukotriene B4 receptor
Chain of Leukotriene B4 receptor 1 (Q15722 whole entry): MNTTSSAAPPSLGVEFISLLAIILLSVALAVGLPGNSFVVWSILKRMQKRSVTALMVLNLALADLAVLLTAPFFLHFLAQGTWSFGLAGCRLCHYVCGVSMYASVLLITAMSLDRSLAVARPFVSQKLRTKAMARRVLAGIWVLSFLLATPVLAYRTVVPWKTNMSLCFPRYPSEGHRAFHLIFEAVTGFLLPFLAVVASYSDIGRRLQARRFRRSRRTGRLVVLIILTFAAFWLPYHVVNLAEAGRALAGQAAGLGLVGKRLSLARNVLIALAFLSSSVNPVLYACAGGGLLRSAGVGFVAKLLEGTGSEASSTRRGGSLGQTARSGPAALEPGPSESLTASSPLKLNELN

CC[C@@]1(O)C(=O)OCc2c1cc1n(c2=O)Cc2c-1nc1cnc(C#N)cc1c2C
IC50 [1]: 143 nM

COc1ccc(CC2C(c3ccc(Cl)c(Cl)c3)C(=O)O[C@@]2(O)c2ccc(OC)cc2)cc1 (stereo partly drawn)
Ki (Endothelin-1 receptor): 170 nM

CCCCc1nn(-c2ccccc2C(F)(F)F)c(=O)n1Cc1ccc(-c2ccccc2S(=O)(=O)NC(=O)OC(C)(C)C)cc1
Ki [2]: 17 nM | IC50 [3]: 0.45 nM

CCCCc1nn(-c2ccccc2C(F)(F)F)c(=O)n1Cc1ccc(-c2ccccc2-c2nnn[nH]2)cc1
Ki [4]: 1.2 nM

CCCCc1nn(-c2ccccc2C(C)C)c(=O)n1Cc1ccc(-c2ccccc2-c2nn[nH]n2)cc1
Ki [4]: 1.4 nM

CCOC(=O)C(=O)[C@@H]1CCCN1C(=O)[C@@H]1CCCN1C(=O)CCCc1ccccc1
IC50 (Prolyl endopeptidase): 10.3 nM

CCNC(=O)[C@H]1C[C@@H](n2cnc3c(N)nc(C#Cc4nccs4)nc32)[C@H](OC)[C@@H]1OC
Ki (Adenosine receptor A2a): 41.3 nM

CCCc1c(OCCCOc2ccc(-c3cscn3)c(COC)c2CC2CC2)ccc2c1O[C@@H](C(=O)O)CC2
Ki [5]: 3.2 nM

CCCc1c(OCCCOc2ccc3c(c2CCC)O[C@@H](C(=O)O)CC3)ccc(C(C)=O)c1CO
Ki [5]: 320 nM

CC[C@@]1(O)C(=O)OCc2c1cc1n(c2=O)Cc2c-1nc1cnc(Br)cc1c2C
IC50 [1]: 28 nM

CCCCc1nn(-c2cccc([N+](=O)[O-])c2)c(=O)n1Cc1ccc(-c2ccccc2S(=O)(=O)NC(=O)c2ccccc2Cl)cc1
Ki [2]: 173 nM | IC50 [3]: 31 nM
